From patent US11737461B2, “Citrate perhydrates and uses thereof” (BIOREM ENGINEERING SA, priority 2018, dated 2023)

Tests used:
Botrytis cinerea = conditions: samples at equivalent concentrations (0.2 M)
[1] = pH of an aqueous solution of the compound (pH meter); type: physicochemical; conditions: for pH: sample solution of Table 13 (0.2 M H2O2 and/or citrate)
[2] = other compound containing hydrogen peroxide, dissolved; cited from earlier work

| Compound | MIC Botrytis (Botrytis cinerea) | pH [1] | pH obtained by dissolving [2] | pH of an aqueous solution ([1]; diluted 20× in water) |
| --- | --- | --- | --- | --- |
| O=C(O)CC(O)(CC(=O)O)C(=O)O [Acide citrique, Citric acid] | non actif |  |  |  |
| O.O.O.O=C([O-])CC(O)(CC(=O)[O-])C(=O)O.O=C([O-])CC(O)(CC(=O)[O-])C(=O)O.[Na+].[Na+].[Na+].[Na+] [Disodium citrate sesquihydrate] | non actif | 4.9 |  |  |
| OO [Hydrogen peroxide] | non actif | 6.4 |  |  |
| O=C([O-])[O-].O=C([O-])[O-].OO.OO.OO.[Na+].[Na+].[Na+].[Na+] [sodium percarbonate] |  |  | 11 |  |
| O.O.O=C([O-])CC(O)(CC(=O)[O-])C(=O)[O-].OO.[Na+].[Na+].[Na+] [trisodium citrate monoperhydrate dihydrate] | 72 mM | 8.2 |  | 7.6 (±0.3) |
| anhydrous disodium citrate monoperhydrate [disodium citrate perhydrate] | 108 mM |  |  |  |
